How the values were obtained:
[1] = molecular target: T1, Gram Negative E. coli RelA (Escherichia coli, UniProt P0AG20); assay: In vitro (p)ppGpp accumulation, RelA synthetic activity; format: biochemical; conditions: figure only
T1 construct: made in house; host or cells: deltaRelA E. coli cells, IPTG induced
Procedure: (§1) Starters of deltaRelA E. coli cells, expressing one of the following proteins (RelA, RelA638 or Relseq385) in trans, were grown overnight at 37° C. The next day, the starters were diluted 1:50 in 400 ml LBamp and the cells have continued to grow at 37° C. until they reached O.D600=˜0.6. Then, the cells were added with IPTG (1 mg/ml) and the cells were grown at the same conditions for additional 2-3 h. After that the cells were harvested for 10 min at 4000 rpm and the pellet was frozen at −80° C.
(§2) • Lysis of the pellet using “Lysis Buffer” containing Lysozyme (3 mg/ml) and ½ pill of Complete (EDTA-free). • Sonication on ice for 3.5 min. • Centrifuge the cells for 10 min at 10000 rpm. • Mix the supernatant with Ni-NTA bids for 1 h at 4° C. • Load the bids on a column and wash it with “Wash Buffer”. • Elute the protein using “Elution Buffer”.
(§3) The elution fractions were run on 12% Acryl/Bis gel and the fractions containing the most protein were taken to dialysis (two times overnight at 4° C.). After dialysis the concentration of the protein was determined using Bradford Reagent (O.D595).
(§4) In Vitro (p)ppGpp Accumulation:
(§5) 2.5 mM GTP, 20 mM ATP, 200 mM Tris HCl pH7.4, 5 mM DTT, 50 mM MgCl2
(§6) 50 mM KCl, 135 mM (NH4)2SO4, α-^32P GTP (0.1 μl per reaction), DDW
(§7) Once the buffer is added together with 1 μg of protein, 0-10 mM of inhibitor and 30 μg of ribosomes (in a total volume of 20 μl) the following reaction occurs: GTP/GDP+ATP→(p)ppGpp.
(§8) The reactions are incubated at room temperature for a period of 10-90 minutes. Then, the reactions are stopped by the addition of 5 μl of Formic acid. Once the reactions were stopped, they were placed on ice until 5 μl of each reaction were loaded on Cellulose PEI (Merck) and ran for 2 hours in 1.5M KH2PO4. The PEI was read, using image reader-1000 V1.8 and the data was analyzed by TINA 2.0 software.

[2] = molecular target: T2, Relseq from Gram Positive Streptococcus equisimils (Streptococcus dysgalactiae subsp. equisimilis, UniProt Q54089); assay: In vitro (p)ppGpp accumulation, Relseq synthetic activity; format: biochemical; conditions: figure only
T2 construct: made in house; host or cells: deltaRelA E. coli cells, IPTG induced
T2 sequence (Q54089 1-385): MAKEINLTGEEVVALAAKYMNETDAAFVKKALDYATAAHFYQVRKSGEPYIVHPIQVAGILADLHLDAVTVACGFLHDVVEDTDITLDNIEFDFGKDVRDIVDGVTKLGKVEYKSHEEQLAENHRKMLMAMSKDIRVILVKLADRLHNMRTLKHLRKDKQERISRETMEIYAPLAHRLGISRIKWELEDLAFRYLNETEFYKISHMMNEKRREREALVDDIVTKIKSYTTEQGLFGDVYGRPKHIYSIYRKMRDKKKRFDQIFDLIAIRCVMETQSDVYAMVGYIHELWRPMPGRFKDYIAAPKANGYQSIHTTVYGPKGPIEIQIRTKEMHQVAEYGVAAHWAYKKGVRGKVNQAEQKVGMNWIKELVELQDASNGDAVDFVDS
Procedure: as §1, §2, §3, §4, §5, §6, §7, §8

[3] = presented as pmol (p)ppGpp per mg RelA vs. compound concentration, 0-10 mM inhibitor
[4] = separate experiment, presented as % inhibition vs. compound concentration
[5] = presented as % inhibition vs. compound concentration

T1 sequence (P0AG20 whole entry): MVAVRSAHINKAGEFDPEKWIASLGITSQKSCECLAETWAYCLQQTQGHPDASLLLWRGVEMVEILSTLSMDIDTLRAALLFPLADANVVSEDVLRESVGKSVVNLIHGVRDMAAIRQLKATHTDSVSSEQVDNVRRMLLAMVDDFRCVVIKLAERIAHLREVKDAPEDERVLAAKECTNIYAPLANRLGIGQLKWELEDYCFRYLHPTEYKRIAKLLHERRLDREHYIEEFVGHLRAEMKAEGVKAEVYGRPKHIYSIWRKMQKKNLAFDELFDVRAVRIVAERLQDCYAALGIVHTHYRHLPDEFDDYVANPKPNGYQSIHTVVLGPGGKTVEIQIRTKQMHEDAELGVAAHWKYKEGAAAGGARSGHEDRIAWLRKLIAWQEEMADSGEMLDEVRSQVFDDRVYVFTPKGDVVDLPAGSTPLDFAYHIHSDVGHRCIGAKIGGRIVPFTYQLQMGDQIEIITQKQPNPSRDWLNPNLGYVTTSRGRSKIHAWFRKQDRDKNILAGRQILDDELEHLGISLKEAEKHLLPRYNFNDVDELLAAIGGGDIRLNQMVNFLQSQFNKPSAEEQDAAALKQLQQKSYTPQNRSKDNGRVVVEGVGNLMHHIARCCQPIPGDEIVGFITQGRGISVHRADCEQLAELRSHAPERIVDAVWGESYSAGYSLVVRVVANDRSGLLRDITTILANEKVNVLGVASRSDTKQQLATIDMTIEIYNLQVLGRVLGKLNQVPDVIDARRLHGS

SMILES | inhibitory effect on RelA synthetic activity in vitro [1, 3] | inhibitory effect on RelA synthetic activity in vitro [1, 4] | inhibitory effect on Relseq synthetic activity in vitro [2, 5] | inhibitory effect on Relseq synthetic activity in vitro ([2]; presented as pmol (p)ppGpp per mg Relseq vs. compound concentration)
CC(C)C(=O)Nc1nc2c(ncn2C2OC(COP(=O)(O)CP(=O)(O)O)C(OP(=O)(O)CP(=O)(O)O)C2O[Si](C)(C)C(C)(C)C)c(=O)[nH]1 (stereo not drawn) [Compound D7] | inhibitory effect | inhibitory effect | – | –
CC(C)C(=O)Nc1nc2c(ncn2C2OC(COP(=O)(O)CP(=O)(O)O)C(O)C2OP(=O)(O)CP(=O)(O)O)c(=O)[nH]1 (stereo not drawn) [Compound D2c] | – | inhibitory effect | – | –
CC1(C)OC2C(COP(=O)(O)CP(=O)(O)O)OC(n3cnc4c(=O)[nH]c(N)nc43)C2O1 (stereo not drawn) [Compound E3b] | inhibitory effect | inhibitory effect | inhibitory effect | –
Nc1nc2c(ncn2[C@@H]2O[C@H](COP(=O)(O)CP(=O)(O)O)C(O)C2OP(=O)(O)CP(=O)(O)O)c(=O)[nH]1 (stereo partly drawn) [Compound D2b] | – | inhibitory effect | inhibitory effect | –
Nc1nc2c(ncn2[C@H]2CC(OP(=O)(O)CP(=O)(O)O)[C@@H](COP(=O)(O)CP(=O)(O)O)O2)c(=O)[nH]1 (stereo partly drawn) [Compound D3, 5′,3′-O-di-[methylene-(bisphosphonate)]-2′-deoxyguanosine] | inhibitory effect | inhibitory effect | inhibitory effect | inhibitory effect
CC(C)C(=O)Nc1nc2c(ncn2C2OC(COP(=O)(O)CP(=O)(O)O)C(OP(=O)(O)CP(=O)(O)O)C2O)c(=O)[nH]1 (stereo not drawn) [Compound D8] | inhibitory effect | inhibitory effect | – | –
Nc1nc2c(ncn2[C@@H]2O[C@H](COP(=O)(O)CP(=O)(O)O)C(OP(=O)(O)CP(=O)(O)O)C2O)c(=O)[nH]1 (stereo partly drawn) [Compound D1c] | – | inhibitory effect | inhibitory effect | –
Nc1nc2c(ncn2[C@@H]2O[C@H](COP(=O)(O)CP(=O)(O)O)C(O)C2O)c(=O)[nH]1 (stereo partly drawn) [Compound A1] | inhibitory effect | inhibitory effect | inhibitory effect | –
CC(C)C(=O)Nc1nc2c(ncn2C2OC(COP(=O)(O)CP(=O)(O)O)C(O[Si](C)(C)C(C)(C)C)C2OP(=O)(O)CP(=O)(O)O)c(=O)[nH]1 (stereo not drawn) [Compound D6] | inhibitory effect | inhibitory effect | – | –

Source: patent US20110086813A1, “COMPOUNDS FOR TREATING BACTERIAL INFECTIONS” (priority 2008, published 2011)
